Experimental data as given in patent US20240317721A1, “PYRAZOLYL DERIVATIVES AS INHIBITORS OF THE KRAS MUTANT PROTEIN” (NOVARTIS AG, priority 2021, published 2024).

Each compound was assayed against KRasG12C (M1-K169, biotinylated on the N-terminus) (Homo sapiens (Human), UniProt P01116, G12C) (assay: Covalent competition assay: scintillation proximity assay (SPA) quantifying covalent modification of KRASG12C). Settings: competition with radiolabeled covalent probe (Compound B/Compound A), 2 hours incubation, 10 nM KRasG12C.
Assay type: binding
How it was run: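 Scintillation proximity readout after streptavidin bead capture (30 min) of biotinylated KRasG12C(M1-K169):GDP, 10 nM final, which was covalently labelled over 2 h by 25 nM radio-probe plus 475 nM cold probe unless blocked by compound.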

Q: `C=CC(=O)N1CC2(CC(n3nc(N4CCC(CN5CCOCC5)C4(C)C)c(-c4c(Cl)c(Cl)cc5[nH]ncc45)c3C)C2)C1` (single isomer, unassigned) [Example 219a, 1-(6-(4-(5,6-dichloro-1H-indazol-4-yl)-3-(2,2-dimethyl-3-(morpholinomethyl)pyrrolidin-1-yl)-5-methyl-1H-pyrazol-1-yl)-2-azaspiro[3.3]heptan-2-yl)prop-2-en-1-one] was tested. Which IC50 did it give?
A: Its IC50 is 1600 nM.

Q: `C=CC(=O)N1CC2(CC(n3nc(N4CCC(CN5CCOCC5)C4(C)C)c(-c4c(Cl)c(Cl)cc5[nH]ncc45)c3C)C2)C1` (single isomer, unassigned) [Example 219b, 1-(6-(4-(5,6-dichloro-1H-indazol-4-yl)-3-(2,2-dimethyl-3-(morpholinomethyl)pyrrolidin-1-yl)-5-methyl-1H-pyrazol-1-yl)-2-azaspiro[3.3]heptan-2-yl)prop-2-en-1-one] was tested. Which IC50 did it give?
A: Its IC50 is 42 nM.

Q: With `C=CC(=O)N1CC2(CC(n3nc(N4CC=C(CN5CCOCC5)CC4(C)C)c(-c4c(Cl)c(Cl)cc5[nH]ncc45)c3C)C2)C1` (single isomer, unassigned) [Example 220a, 1-(6-(4-(5,6-dichloro-1H-indazol-4-yl)-3-(2,2-dimethyl-4-(morpholinomethyl)-3,6-dihydropyridin-1(2H)-yl)-5-methyl-1H-pyrazol-1-yl)-2-azaspiro[3.3]heptan-2-yl)prop-2-en-1-one] as the compound, how does the IC50 read?
A: The IC50 was over 5000 nM.

Q: Which IC50 does the source give for `C=CC(=O)N1CC2(CC(n3nc(N4CC=C(CN5CCOCC5)CC4(C)C)c(-c4c(Cl)c(Cl)cc5[nH]ncc45)c3C)C2)C1` (single isomer, unassigned) [Example 220b, 1-(6-(4-(5,6-dichloro-1H-indazol-4-yl)-3-(2,2-dimethyl-4-(morpholinomethyl)-3,6-dihydropyridin-1(2H)-yl)-5-methyl-1H-pyrazol-1-yl)-2-azaspiro[3.3]heptan-2-yl)prop-2-en-1-one] here?
A: Its IC50 is 36 nM.

Q: Which IC50 does the source give for `C=CC(=O)N1CC2(CC(n3nc(N4CCC(CN5CCOCC5)CC4(C)COC)c(-c4c(Cl)c(Cl)cc5[nH]ncc45)c3C)C2)C1` (single isomer, unassigned) [Example 221a, 1-(6-(4-(5,6-dichloro-1H-indazol-4-yl)-3-(2-(methoxymethyl)-2-methyl-4-(morpholinomethyl)piperidin-1-yl)-5-methyl-1H-pyrazol-1-yl)-2-azaspiro[3.3]heptan-2-yl)prop-2-en-1-one] here?
A: Its IC50 is 5 nM.

Q: Which IC50 does the source give for `C=CC(=O)N1CC2(CC(n3nc(N4CCC(CN5CCOCC5)CC4(C)COC)c(-c4c(Cl)c(Cl)cc5[nH]ncc45)c3C)C2)C1` (single isomer, unassigned) [Example 221b, 1-(6-(4-(5,6-dichloro-1H-indazol-4-yl)-3-(2-(methoxymethyl)-2-methyl-4-(morpholinomethyl)piperidin-1-yl)-5-methyl-1H-pyrazol-1-yl)-2-azaspiro[3.3]heptan-2-yl)prop-2-en-1-one] here?
A: The IC50 was 405 nM.

Q: With `C=CC(=O)N1CC2(CC(n3nc(N4CCC(CN5CCOCC5)CC4(C)CC)c(-c4c(Cl)c(C)cc5[nH]ncc45)c3C)C2)C1` (single isomer, unassigned) [Example 222a, 1-(6-(4-(5-chloro-6-methyl-1H-indazol-4-yl)-3-(2-ethyl-2-methyl-4-(morpholinomethyl)piperidin-1-yl)-5-methyl-1H-pyrazol-1-yl)-2-azaspiro[3.3]heptan-2-yl)prop-2-en-1-one] as the compound, how does the IC50 read?
A: Its IC50 is 1100 nM.

Q: Which IC50 does the source give for `C=CC(=O)N1CC2(CC(n3nc(N4CCC(CN5CCOCC5)CC4(C)CC)c(-c4c(Cl)c(C)cc5[nH]ncc45)c3C)C2)C1` (single isomer, unassigned) [Example 222b, 1-(6-(4-(5-chloro-6-methyl-1H-indazol-4-yl)-3-(2-ethyl-2-methyl-4-(morpholinomethyl)piperidin-1-yl)-5-methyl-1H-pyrazol-1-yl)-2-azaspiro[3.3]heptan-2-yl)prop-2-en-1-one] here?
A: The IC50 was 7 nM.

Q: How did the IC50 turn out when `[2H]C([2H])([2H])c1c(-c2c(Cl)c(Cl)cc3[nH]ncc23)c(N2CC[C@@H](CN3CCOCC3)CC2(C)C)nn1C1CC2(C1)CN(C(=O)C=C)C2` (single isomer, unassigned) [Example 224a] was run?
A: Its IC50 is over 5000 nM.

Q: `[2H]C([2H])([2H])c1c(-c2c(Cl)c(Cl)cc3[nH]ncc23)c(N2CC[C@@H](CN3CCOCC3)CC2(C)C)nn1C1CC2(C1)CN(C(=O)C=C)C2` (single isomer, unassigned) [Example 224b] was tested. Which IC50 did it give?
A: Its IC50 is 12 nM.

Q: `C=CC(=O)N1CC2(CC(n3nc(N4CC[C@@H](CN5CCOCC5)CC4(C)C)c(-c4c(Cl)c(C)cc5[nH]nc(C)c45)c3C#N)C2)C1` (single isomer, unassigned) [Example 225a] was tested. Which IC50 did it give?
A: Its IC50 is 341 nM.

Q: For `C=CC(=O)N1CC2(CC(n3nc(N4CC[C@@H](CN5CCOCC5)CC4(C)C)c(-c4c(Cl)c(C)cc5[nH]nc(C)c45)c3C#N)C2)C1` (single isomer, unassigned) [Example 225b], which IC50 is on record?
A: The IC50 was over 5000 nM.

Q: For `C=CC(=O)N1CC2(CC(n3nc(N4CCC(CN5CC6COCC6C5)CC4(C)C)c(-c4c(Cl)c(Cl)cc5[nH]ncc45)c3C)C2)C1` (single isomer, unassigned) [Example 226a, 1-(6-(4-(5,6-dichloro-1H-indazol-4-yl)-3-(2,2-dimethyl-4-((tetrahydro-1H-furo[3,4-c]pyrrol-5(3H)-yl)methyl)piperidin-1-yl)-5-methyl-1H-pyrazol-1-yl)-2-azaspiro[3.3]heptan-2-yl)prop-2-en-1-one], which IC50 is on record?
A: The IC50 was 119 nM.

Q: For `C=CC(=O)N1CC2(CC(n3nc(N4CCC(CN5CC6COCC6C5)CC4(C)C)c(-c4c(Cl)c(Cl)cc5[nH]ncc45)c3C)C2)C1` (single isomer, unassigned) [Example 226b, 1-(6-(4-(5,6-dichloro-1H-indazol-4-yl)-3-(2,2-dimethyl-4-((tetrahydro-1H-furo[3,4-c]pyrrol-5(3H)-yl)methyl)piperidin-1-yl)-5-methyl-1H-pyrazol-1-yl)-2-azaspiro[3.3]heptan-2-yl)prop-2-en-1-one], which IC50 is on record?
A: The IC50 was 1100 nM.

Q: `C=CC(=O)N1CC2(CC(n3nc(N4CCC(CN5CC6COCC6C5)CC4(C)C)c(-c4c(Cl)c(Cl)cc5[nH]ncc45)c3C)C2)C1` (single isomer, unassigned) [Example 227a, 1-(6-(4-(5,6-dichloro-1H-indazol-4-yl)-3-(2,2-dimethyl-4-((tetrahydro-1H-furo[3,4-c]pyrrol-5(3H)-yl)methyl)piperidin-1-yl)-5-methyl-1H-pyrazol-1-yl)-2-azaspiro[3.3]heptan-2-yl)prop-2-en-1-one] was tested. Which IC50 did it give?
A: Its IC50 is 4900 nM.

Q: With `C=CC(=O)N1CC2(CC(n3nc(N4CCC(CN5CC6COCC6C5)CC4(C)C)c(-c4c(Cl)c(Cl)cc5[nH]ncc45)c3C)C2)C1` (single isomer, unassigned) [Example 227b, 1-(6-(4-(5,6-dichloro-1H-indazol-4-yl)-3-(2,2-dimethyl-4-((tetrahydro-1H-furo[3,4-c]pyrrol-5(3H)-yl)methyl)piperidin-1-yl)-5-methyl-1H-pyrazol-1-yl)-2-azaspiro[3.3]heptan-2-yl)prop-2-en-1-one] as the compound, how does the IC50 read?
A: The IC50 was 8 nM.

Q: For `C=CC(=O)N1CC2(CC(n3nc(N4CCC(CN5CC6CC(C5)O6)CC4(C)C)c(-c4c(Cl)c(Cl)cc5[nH]ncc45)c3C)C2)C1` (single isomer, unassigned) [Example 228a, 1-(6-(3-(4-((6-oxa-3-azabicyclo[3.1.1]heptan-3-yl)methyl)-2,2-dimethylpiperidin-1-yl)-4-(5,6-dichloro-1H-indazol-4-yl)-5-methyl-1H-pyrazol-1-yl)-2-azaspiro[3.3]heptan-2-yl)prop-2-en-1-one], which IC50 is on record?
A: Its IC50 is over 5000 nM.

Q: How did the IC50 turn out when `C=CC(=O)N1CC2(CC(n3nc(N4CCC(CN5CC6CC(C5)O6)CC4(C)C)c(-c4c(Cl)c(Cl)cc5[nH]ncc45)c3C)C2)C1` (single isomer, unassigned) [Example 228b, 1-(6-(3-(4-((6-oxa-3-azabicyclo[3.1.1]heptan-3-yl)methyl)-2,2-dimethylpiperidin-1-yl)-4-(5,6-dichloro-1H-indazol-4-yl)-5-methyl-1H-pyrazol-1-yl)-2-azaspiro[3.3]heptan-2-yl)prop-2-en-1-one] was run?
A: The IC50 was 281 nM.

Q: Which IC50 does the source give for `C=CC(=O)N1CC2(CC(n3nc(N4CCC(CN5CC6CC(C5)O6)CC4(C)C)c(-c4c(Cl)c(Cl)cc5[nH]ncc45)c3C)C2)C1` (single isomer, unassigned) [Example 229a, 1-(6-(3-(4-((6-oxa-3-azabicyclo[3.1.1]heptan-3-yl)methyl)-2,2-dimethylpiperidin-1-yl)-4-(5,6-dichloro-1H-indazol-4-yl)-5-methyl-1H-pyrazol-1-yl)-2-azaspiro[3.3]heptan-2-yl)prop-2-en-1-one] here?
A: The IC50 was over 5000 nM.

Q: With `C=CC(=O)N1CC2(CC(n3nc(N4CCC(CN5CC6CC(C5)O6)CC4(C)C)c(-c4c(Cl)c(Cl)cc5[nH]ncc45)c3C)C2)C1` (single isomer, unassigned) [Example 229b, 1-(6-(3-(4-((6-oxa-3-azabicyclo[3.1.1]heptan-3-yl)methyl)-2,2-dimethylpiperidin-1-yl)-4-(5,6-dichloro-1H-indazol-4-yl)-5-methyl-1H-pyrazol-1-yl)-2-azaspiro[3.3]heptan-2-yl)prop-2-en-1-one] as the compound, how does the IC50 read?
A: Its IC50 is 11 nM.

Q: How did the IC50 turn out when `C=CC(=O)N1CC2(CC(n3nc(N4CCC(CN5C[C@@H]6OCCO[C@@H]6C5)CC4(C)C)c(-c4c(Cl)c(Cl)cc5[nH]ncc45)c3C)C2)C1` (single isomer, unassigned) [Example 231a] was run?
A: Its IC50 is over 5000 nM.

Q: `C=CC(=O)N1CC2(CC(n3nc(N4CCC(CN5C[C@@H]6OCCO[C@@H]6C5)CC4(C)C)c(-c4c(Cl)c(Cl)cc5[nH]ncc45)c3C)C2)C1` (single isomer, unassigned) [Example 231b] was tested. Which IC50 did it give?
A: Its IC50 is 11 nM.

Q: How did the IC50 turn out when `C=CC(=O)N1CC2(CC(n3nc(N4CCC(CN5C[C@@H]6OCCO[C@@H]6C5)CC4(C)C)c(-c4c(Cl)c(Cl)cc5[nH]ncc45)c3C)C2)C1` (single isomer, unassigned) [Example 232a] was run?
A: Its IC50 is over 5000 nM.

Q: `C=CC(=O)N1CC2(CC(n3nc(N4CCC(CN5C[C@@H]6OCCO[C@@H]6C5)CC4(C)C)c(-c4c(Cl)c(Cl)cc5[nH]ncc45)c3C)C2)C1` (single isomer, unassigned) [Example 232b] was tested. Which IC50 did it give?
A: The IC50 was 137 nM.

Q: `C=CC(=O)N1CC2(CC(n3nc(N4CC[C@@H](CN5CCOCC5)CC4(C)C)c(-c4c(C)c(Cl)cc5[nH]ncc45)c3C)C2)C1` (single isomer, unassigned) [Example 233a] was tested. Which IC50 did it give?
A: Its IC50 is 4000 nM.
